Test results: ChEMBL document CHEMBL3352059, “Neuroprotective effects of a brain permeant 6-aminoquinoxaline derivative in cell culture conditions that model the loss of dopaminergic neurons in Parkinson disease” (Eur J Med Chem, 2015)
≈ marks a conversion by molar mass, not a printed value. Each block holds one compound with its values, some of them ahead of it. Calls of active or inactive are those of the source. The rule behind the calls is not given here.

Assays:
Rattus norvegicus [1] = species: Rattus norvegicus; test: Neuroprotective effect in Sprague-Dawley rat DA neurons assessed as [3H]-DA uptake at 10 uM after 10 days by liquid scintillation spectrometry relative to control; assay type: functional
[2] = Aqueous solubility of the compound at pH 7.4 after 5 mins by HPLC analysis; assay type: physicochemical
Rattus norvegicus [3] = species: Rattus norvegicus; test: Neuroprotective effect in Sprague-Dawley rat DA neurons assessed as developement of neuritic network at 10 uM after 10 days by microscopic analysis relative to control; assay type: functional
Rattus norvegicus [4] = species: Rattus norvegicus; test: Neuroprotective effect in Sprague-Dawley rat DA neurons at 10 uM after 10 days by immunofluorescence assay; assay type: functional
Rattus norvegicus [5] = species: Rattus norvegicus; test: Neuroprotective effect in Sprague-Dawley rat DA neurons at 1 mM after 10 days by immunofluorescence assay; assay type: functional
Rattus norvegicus [6] = species: Rattus norvegicus; test: Antiproliferative activity at Sprague-Dawley rat DA neurons assessed as reduction of [3H]-thymidine incorporation at 1 mM after 8 days by liquid scintillation spectrometry; assay type: functional
Rattus norvegicus [7] = species: Rattus norvegicus; test: Neuroprotective effect in Sprague-Dawley rat DA neurons after 10 days by immunofluorescence assay; assay type: functional
Rattus norvegicus [8] = species: Rattus norvegicus; test: Neuroprotective effect in Sprague-Dawley rat DA neurons assessed as [3H]-DA uptake after 10 days by liquid scintillation spectrometry relative to control; assay type: functional
Rattus norvegicus [9] = species: Rattus norvegicus; test: Neuroprotective effect in Sprague-Dawley rat DA neurons assessed as developement of neuritic network after 10 days by microscopic analysis relative to control; assay type: functional
Rattus norvegicus [10] = species: Rattus norvegicus; test: Neuroprotective effect in Sprague-Dawley rat DA neurons at 10 uM under chronic oxidative stress condition; assay type: functional
[11] = Antioxidant activity assessed as radical scavenging activity after 1 hr by ABTS competition assay; assay type: physicochemical
Rattus norvegicus [12] = species: Rattus norvegicus; test: Neuroprotective effect in Sprague-Dawley rat DA neurons under GDNF deprived condition at 50 to 100 uM; assay type: functional
Rattus norvegicus [13] = species: Rattus norvegicus; test: Neuroprotective effect in Sprague-Dawley rat DA neurons assessed as [3H]-DA uptake at 100 uM after 10 days by liquid scintillation spectrometry relative to control; assay type: functional
[14] = Drug uptake in C57BL/6J mouse ventral mesencephalon at 75 mg/kg, po after 1 hr by MALDI-TOF mass spectrometry; assay type: ADME, organism-based; set-up: dose 75 mg/kg, route oral; conditions: in vivo
Striatum = test: Drug uptake in C57BL/6J mouse striatum at 75 mg/kg, po after 1 hr by MALDI-TOF mass spectrometry; assay type: ADME, organism-based; set-up: dose 75 mg/kg, route oral; conditions: in vivo
Brain [15] = test: Drug uptake in C57BL/6J mouse brain at 75 mg/kg, po after 1 hr by MALDI-TOF mass spectrometry; assay type: ADME, organism-based; set-up: dose 75 mg/kg, route oral; conditions: in vivo
Rattus norvegicus [16] = species: Rattus norvegicus; test: Neuroprotective effect in Sprague-Dawley rat DA neurons assessed as developement of neuritic network at 100 uM after 10 days by microscopic analysis relative to control; assay type: functional
Brain [17] = test: Drug uptake in C57BL/6J mouse brain at 150 mg/kg, po bid administered for 4 days followed by single dose on day 5 measured 1 hr post last dose; assay type: ADME, organism-based; set-up: dose 150 mg/kg, route oral; conditions: in vivo
Nucleic Acid = test: Ratio of drug uptake in C57BL/6J mouse striatum to cortical area at 75 mg/kg, po after 1 hr by MALDI-TOF mass spectrometry; assay type: ADME, organism-based; set-up: dose 75 mg/kg, route oral; conditions: in vivo
Mus musculus [18] = test: Toxicity in C57BL/6J mouse assessed as behavioral change at 150 mg/kg, po bid administered for 4 days followed by single dose on day 5 […]; assay type: organism-based; set-up: dose 150 mg/kg, route oral; conditions: in vivo, 96 h
[19] = Ratio of drug uptake from brain to plasma in C57BL/6J mouse at 150 mg/kg, po bid administered for 4 days followed by single dose on day 5 measured 1 hr post last dose; assay type: ADME, organism-based; set-up: dose 150 mg/kg, route oral; conditions: read-out: BPR
Mus musculus [20] = test: Toxicity in C57BL/6J mouse assessed as change in body weight at 150 mg/kg, po bid administered for 4 days followed by single dose on day 5 […]; assay type: organism-based; set-up: dose 150 mg/kg, route oral; conditions: in vivo, 96 h
Rattus norvegicus [21] = species: Rattus norvegicus; test: Neuroprotective effect in Sprague-Dawley rat DA neurons under chronic oxidative stress condition; assay type: functional
Mus musculus [22] = test: Toxicity in C57BL/6J mouse assessed as change in food intake at 150 mg/kg, po bid administered for 4 days followed by single dose on day 5 […]; assay type: organism-based; set-up: dose 150 mg/kg, route oral; conditions: in vivo, 96 h
Rattus norvegicus [23] = species: Rattus norvegicus; test: Antiproliferative activity at Sprague-Dawley rat DA neurons assessed as reduction of [3H]-thymidine incorporation at 50 to 100 uM after 8 days by liquid scintillation spectrometry; assay type: functional
Rattus norvegicus [24] = species: Rattus norvegicus; test: Neuroprotective effect in Sprague-Dawley rat DA neurons at 100 uM in presence of anti-GDNF antibody AB-212-NA; assay type: functional
Rattus norvegicus [25] = species: Rattus norvegicus; test: Neuroprotective effect in Sprague-Dawley rat DA neurons at 100 uM after 10 days by immunofluorescence assay; assay type: functional

solubility at 5 min [2]: 5 µM (≈ 1.85 µg/mL)
SMILES: CCCCCCCCCCCCCCCNc1ccc2nc(C)cnc2c1
Activity (Rattus norvegicus [1]): Active
Activity (Rattus norvegicus [3]): Active
Activity (Rattus norvegicus [4]): inactive

SMILES: CCCC(=O)Nc1ncnc2c1ncn2[C@@H]1O[C@@H]2COP(=O)(O)O[C@H]2[C@H]1OC(=O)CCC
Activity (Rattus norvegicus [5]): Active
Activity (Rattus norvegicus [6]): Active

SMILES: Cc1cnc2cc(N)ccc2n1
Activity (Rattus norvegicus [7]): inactive
Activity (Rattus norvegicus [8]): inactive
Activity (Rattus norvegicus [9]): inactive

SMILES: CC(=O)N(O)CCCCCNC(=O)CCC(=O)N(O)CCCCCNC(=O)CCC(=O)N(O)CCCCCN
Activity (Rattus norvegicus [10]): Active

SMILES: CCCCc1nc2cc(N)ccc2nc1C
Activity (Rattus norvegicus [7]): inactive
Activity (Rattus norvegicus [8]): inactive
Activity (Rattus norvegicus [9]): inactive

IC50 [11]: 270 µM
SMILES: Cc1c(C)c2c(c(C)c1O)CCC(C)(C(=O)O)O2 (configuration not stated) [TROLOX]

SMILES: CCCCCCc1nc2ccc(N)cc2nc1CCCC
Activity (Rattus norvegicus [7]): inactive
Activity (Rattus norvegicus [8]): inactive
Activity (Rattus norvegicus [9]): inactive

solubility at 5 min [2]: 125 µM (≈ 29.4 µg/mL)
IC50 [11]: 350 µM
Drug uptake [14]: Active
Drug uptake (Striatum): Active
Drug uptake (Brain [15]): Active
Drug uptake (Brain [17]): Active
Ratio (Nucleic Acid): 2.7
Kp at 1 h [19]: 1
SMILES: Cc1nc2ccc(N)cc2nc1-c1ccccc1
Activity (Rattus norvegicus [12]): Active
Activity (Rattus norvegicus [13]): Active
Activity (Rattus norvegicus [16]): Active
Activity (Mus musculus [18]): Non-toxic
Activity (Rattus norvegicus [10]): Active
Activity (Mus musculus [20]): Non-toxic
Activity (Rattus norvegicus [21]): Dose-dependent effect
Activity (Mus musculus [22]): Non-toxic
Activity (Rattus norvegicus [23]): Active
Activity (Rattus norvegicus [24]): Active
Activity (Rattus norvegicus [25]): Active

SMILES: Nc1ccc2nccnc2c1
Activity (Rattus norvegicus [7]): inactive
Activity (Rattus norvegicus [8]): inactive
Activity (Rattus norvegicus [9]): inactive

SMILES: CCCCc1cnc2ccc(N)cc2n1
Activity (Rattus norvegicus [7]): inactive
Activity (Rattus norvegicus [8]): inactive
Activity (Rattus norvegicus [9]): inactive
